# In patent US20090281054A1, “COMPOSITIONS AND METHODS COMPRISING CAPURAMYCIN ANALOGUES” (priority 2008, published 2009):
# Where two headings read alike, the source gives them in different places.
# Assays:
# in vitro = type: cell-based; conditions: mouse
# Experimental: (§1) The SQ997 amino acid derivatives shown in Table 2 were tested for in vitro activity against MTB, cytotoxicity for uninfected J774 cells to determine IC50, and for intracellular activity in the macrophage assay (Table 15). […] Cell viability remained similar to SQ997, or slightly better as cell morphologic changes were reduced.
# MTB H37Rv = experiment: MIC by broth microdilution; type: cell-based; conditions: Mycobacterium tuberculosis
# Experimental: as §1
# [1] = tested on: M. smegmatis (MSMG; MC2155); experiment: MIC by microdilution method in 7H9 broth; type: cell-based; conditions: Mycolicibacterium smegmatis, MC2155|MC^2155; MSMG MC^2155; 72 hr; read-out: MIC
# [2] = tested on: M. abscessus (MAB; ATCC 700869); experiment: MIC by microdilution method in 7H9 broth; type: cell-based; conditions: Mycobacteroides abscessus, ATCC700869; MAB 700869; read-out: MIC
# [3] = tested on: M. kansaii (MKN; ATCC12478 & 35775); experiment: MIC by microdilution method in 7H9 broth; type: cell-based, M. kansasii; conditions: Mycobacterium kansasii, read-out: MIC
# M. avium complex (MAC) = experiment: MIC by microdilution method in 7H9 broth; type: cell-based; conditions: Mycobacterium avium
# MAC = experiment: Synergy by checkerboard titration (microdilution); type: cell-based, M. avium complex; conditions: for MIC Combination: combination SQ641 + EMB; for MIC: Mycobacterium avium, drug alone
# M. smegmatis = experiment: Synergy by checkerboard titration (microdilution); type: cell-based; conditions: M. smegmatis
# [4] = tested on: MTB-pSMT1 luciferase reporter strain; experiment: Activity against slowly replicating (hypoxic) MTB; type: cell-based; conditions: Mycobacterium tuberculosis
structure (smiles),measurement,setting,value
CO[C@H]1[C@@H](OC(=O)CCCCCCCN)[C@H](N2C=CC(=O)NC2)O[C@@H]1[C@@H](OC1OC(C(=O)N[C@H]2CCC[C@@H](C)NC2=O)=C[C@H](O)[C@@H]1O)C(N)=O (some centres unmarked) [997-aminooctanoic acid],IC50,in vitro,> 32 µg/mL
same,MIC,MTB H37Rv,8 µg/mL
CO[C@H]1[C@@H](OC(=O)CCCCCCCCCCN)[C@H](N2C=CC(=O)NC2)O[C@@H]1[C@@H](OC1OC(C(=O)N[C@H]2CCC[C@@H](C)NC2=O)=C[C@H](O)[C@@H]1O)C(N)=O (some centres unmarked) [997-aminoundecanoic acid],IC50,in vitro,32 µg/mL
same,MIC,MTB H37Rv,2 µg/mL
CO[C@H]1[C@@H](OC(=O)c2ccncc2)[C@H](N2C=CC(=O)NC2)O[C@@H]1[C@@H](OC1OC(C(=O)N[C@H]2CCC[C@@H](C)NC2=O)=C[C@H](O)[C@@H]1O)C(N)=O (some centres unmarked) [997-isonicotinic acid],IC50,in vitro,> 32 µg/mL
same,MIC,MTB H37Rv,4 µg/mL
CO[C@H]1[C@@H](OC(=O)C2CCNCC2)[C@H](N2C=CC(=O)NC2)O[C@@H]1[C@@H](OC1OC(C(=O)N[C@H]2CCC[C@@H](C)NC2=O)=C[C@H](O)[C@@H]1O)C(N)=O (some centres unmarked) [997-isonipecotic acid],IC50,in vitro,> 32 µg/mL
same,MIC,MTB H37Rv,8 µg/mL
CO[C@H]1[C@@H](OC(=O)[C@H](N)C(C)C)[C@H](N2C=CC(=O)NC2)O[C@@H]1[C@@H](OC1OC(C(=O)N[C@H]2CCC[C@@H](C)NC2=O)=C[C@H](O)[C@@H]1O)C(N)=O (stereo partly drawn) [Compound 997-D-Val],IC50,in vitro,> 32 µg/mL
same,MIC,MTB H37Rv,12.5 µg/mL
CO[C@H]1[C@@H](OC(=O)[C@@H](N)C(C)C)[C@H](N2C=CC(=O)NC2)O[C@@H]1[C@@H](OC1OC(C(=O)N[C@H]2CCC[C@@H](C)NC2=O)=C[C@H](O)[C@@H]1O)C(N)=O (stereo partly drawn) [Compound 997-L-Val],IC50,in vitro,> 32 µg/mL
same,MIC,MTB H37Rv,12.5 µg/mL
"CC[C@@H](CO)NCCN[C@@H](CC)CO [EMB, ethambutol, reference compound]",MIC,[1],0.5 µg/mL
same,MIC,[2],> 32 µg/mL
same,MIC,"[3]; ATCC 12478 / ATCC 35775, MKN ATCC35775",1 µg/mL
same,MIC,[3]; MKN ATCC12478,2 µg/mL
same,MIC,"M. avium complex (MAC); 336 h, MAC isolates, 2 wk, read-out: MIC (range)",0.5 to 32 µg/mL
same,MIC,"M. avium complex (MAC); MAC strain 100, read-out: MIC",4 µg/mL
same,MIC,"M. avium complex (MAC); MAC strain 101, read-out: MIC",1 µg/mL
same,MIC,"M. avium complex (MAC); MAC strain 104, read-out: MIC",2 µg/mL
same,MIC,"M. avium complex (MAC); MAC strain 109, read-out: MIC",0.5 µg/mL
same,MIC,"M. avium complex (MAC); MAC strain A5, read-out: MIC",1 µg/mL
same,MIC,"M. avium complex (MAC); MAC strain JSH1, read-out: MIC",16 µg/mL
same,MIC,"M. avium complex (MAC); MAC strain NIH C1-1, read-out: MIC",4 µg/mL
same,MIC,"M. avium complex (MAC); MAC strain NIH C1-2, read-out: MIC",2 µg/mL
same,MIC,"M. avium complex (MAC); MAC strain NIH C1-3, read-out: MIC",32 µg/mL
same,MIC,"M. avium complex (MAC); MAC strain NIH C1-4, read-out: MIC",2 µg/mL
same,MIC90,"M. avium complex (MAC); MAC isolates, value in square brackets, read-out: MIC90",16 µg/mL
same,MIC Combination,MAC; MAC A5,0.062 µg/mL
same,MIC Combination,MAC; MAC JSH1,8.0 µg/mL
same,MIC Combination,MAC; MAC NIH C1-1,2.0 µg/mL
same,MIC,MAC; MAC A5,1 µg/mL
same,MIC,MAC; MAC JSH1,32 µg/mL
same,MIC,MAC; MAC NIH C1-1,8 µg/mL
same,MIC Combination,M. smegmatis; combination SQ641 + EMB,0.12 µg/mL
same,MIC,"M. smegmatis; Mycolicibacterium smegmatis, drug alone",0.5 µg/mL
same,MIC,[4],2 µg/mL
same,MIC,"[4]; Hypoxic, […]",32 µg/mL
